The record followed here is ChEMBL document CHEMBL3046348, “Synthesis and antimicrobial screening of novel 2,6-ditertiarybutylpiperidin-4-ones” (2012).

Values after ≈ are worked out from the molar mass of the structure shown.

Holding throughout (assay type): functional
One test deals with Aspergillus niger. Description: Antifungal activity against Aspergillus niger after 72 to 96 hr by serial dilution method.
The next test deals with Trichoderma. In words: Antifungal activity against Trichoderma sp after 72 to 96 hr by serial dilution method.
The next test relates to Bacillus subtilis. Description: Antibacterial activity against Bacillus subtilis after 24 hr by serial dilution method.
Another test has as its system Escherichia coli. Description: Antibacterial activity against Escherichia coli after 24 hr by serial dilution method.
A further test deals with Klebsiella pneumoniae. In words: Antibacterial activity against Klebsiella pneumoniae after 24 hr by serial dilution method.

As to `CC(C)(C)C1CC(=O)CC(C(C)(C)C)N1` (stereo not given), the minimal inhibitory concentration (MIC) is 8 µg/mL (≈ 37.9 µM) with Aspergillus niger; 8 µg/mL (≈ 37.9 µM) in the test on Trichoderma; 8 µg/mL (≈ 37.9 µM) in the test with Bacillus subtilis; 64 µg/mL (≈ 303 µM) in the test with Escherichia coli; 64 µg/mL (≈ 303 µM) against Klebsiella pneumoniae.
Consider `CC1C(=O)CC(C(C)(C)C)NC1C(C)(C)C` (stereo not given), for which the minimum inhibitory concentration (MIC) is 8 µg/mL (≈ 35.5 µM) in the test on Aspergillus niger; 16 µg/mL (≈ 71 µM) in the test on Trichoderma; 16 µg/mL (≈ 71 µM) with Bacillus subtilis; 256 µg/mL (≈ 1140 µM) in the test with Escherichia coli; more than 512 µg/mL in the test on Klebsiella pneumoniae.
`CCOC(=O)C1C(=O)CC(C(C)(C)C)NC1C(C)(C)C` (stereo not given): the MIC against Aspergillus niger worked out at 8 µg/mL (≈ 28.2 µM); against Trichoderma it was 32 µg/mL (≈ 113 µM); in the test with Bacillus subtilis it was 8 µg/mL (≈ 28.2 µM); in the test on Escherichia coli it was 64 µg/mL (≈ 226 µM); against Klebsiella pneumoniae it was 128 µg/mL (≈ 452 µM).
With `CC(C)(C)C1CC(=NO)CC(C(C)(C)C)N1` (stereo not given), the MIC against Aspergillus niger is 64 µg/mL (≈ 283 µM); with Trichoderma it was 16 µg/mL (≈ 70.7 µM); with Bacillus subtilis it was 64 µg/mL (≈ 283 µM); in the test on Escherichia coli it was 256 µg/mL (≈ 1130 µM); against Klebsiella pneumoniae it was more than 512 µg/mL.
As to `CC1/C(=N/O)CC(C(C)(C)C)NC1C(C)(C)C` (stereo not given), the minimal inhibitory concentration (MIC) against Aspergillus niger is 8 µg/mL (≈ 33.3 µM); against Trichoderma it was 8 µg/mL (≈ 33.3 µM); in the test with Bacillus subtilis, 16 µg/mL (≈ 66.6 µM); against Escherichia coli, more than 512 µg/mL; in the test on Klebsiella pneumoniae, 32 µg/mL (≈ 133 µM).
For the compound `CCOC(=O)C1/C(=N\O)CC(C(C)(C)C)NC1C(C)(C)C` (stereo not given), the minimum inhibitory concentration (MIC) against Aspergillus niger was found to be 8 µg/mL (≈ 26.8 µM); against Trichoderma it was 8 µg/mL (≈ 26.8 µM); against Bacillus subtilis, 64 µg/mL (≈ 214 µM); in the test with Escherichia coli, 16 µg/mL (≈ 53.6 µM); with Klebsiella pneumoniae it was 64 µg/mL (≈ 214 µM).
As for `CC(C)(C)C1CC(=O)CC(C(C)(C)C)N1C(C)(C)C` (stereo not given), the minimal inhibitory concentration (MIC) with Aspergillus niger is 8 µg/mL (≈ 29.9 µM); in the test with Trichoderma it was 16 µg/mL (≈ 59.8 µM); in the test with Bacillus subtilis, 8 µg/mL (≈ 29.9 µM); in the test with Escherichia coli, 64 µg/mL (≈ 239 µM); with Klebsiella pneumoniae it was 128 µg/mL (≈ 479 µM).
As for `CC1C(=O)CC(C(C)(C)C)N(C(C)(C)C)C1C(C)(C)C` (stereo not given), the minimum inhibitory concentration (MIC) is 8 µg/mL (≈ 28.4 µM) with Aspergillus niger; 16 µg/mL (≈ 56.8 µM) against Trichoderma; 16 µg/mL (≈ 56.8 µM) against Bacillus subtilis; more than 512 µg/mL in the test on Escherichia coli; 64 µg/mL (≈ 227 µM) in the test with Klebsiella pneumoniae.
As for `CCOC(=O)C1C(=O)CC(C(C)(C)C)N(C(C)(C)C)C1C(C)(C)C` (stereo not given), the minimal inhibitory concentration (MIC) in the test with Aspergillus niger is more than 512 µg/mL; in the test on Trichoderma it was more than 512 µg/mL; in the test with Bacillus subtilis it was 16 µg/mL (≈ 47.1 µM); against Escherichia coli, 64 µg/mL (≈ 189 µM); against Klebsiella pneumoniae, 256 µg/mL (≈ 754 µM).
Take `CC(C)(C)C1CC(=O)CC(C(C)(C)C)N1N=O` (stereo not given): the minimal inhibitory concentration (MIC) is more than 512 µg/mL against Aspergillus niger; more than 512 µg/mL in the test on Trichoderma; 16 µg/mL (≈ 66.6 µM) against Bacillus subtilis; more than 512 µg/mL against Escherichia coli; 256 µg/mL (≈ 1070 µM) with Klebsiella pneumoniae.
As for `CC1C(=O)CC(C(C)(C)C)N(N=O)C1C(C)(C)C` (stereo not given), the minimal inhibitory concentration (MIC) is 16 µg/mL (≈ 62.9 µM) in the test with Aspergillus niger; 8 µg/mL (≈ 31.4 µM) with Trichoderma; 16 µg/mL (≈ 62.9 µM) in the test with Bacillus subtilis; more than 512 µg/mL with Escherichia coli; 512 µg/mL (≈ 2010 µM) against Klebsiella pneumoniae.
Turning to `CCOC(=O)C1C(=O)CC(C(C)(C)C)N(N=O)C1C(C)(C)C` (stereo not given), the MIC was 64 µg/mL (≈ 205 µM) against Aspergillus niger; 32 µg/mL (≈ 102 µM) against Trichoderma; 64 µg/mL (≈ 205 µM) in the test with Bacillus subtilis; 64 µg/mL (≈ 205 µM) in the test with Escherichia coli; 32 µg/mL (≈ 102 µM) with Klebsiella pneumoniae.
In the case of `C[C@@H]1[C@H](O)[C@@H](C)/C=C/C=C/C=C/C=C/C=C/C=C/C=C/[C@H](O[C@@H]2O[C@H](C)[C@@H](O)[C@H](N)[C@@H]2O)C[C@@H]2O[C@](O)(C[C@@H](O)C[C@@H](O)[C@H](O)CC[C@@H](O)C[C@@H](O)CC(=O)O[C@H]1C)C[C@H](O)[C@H]2C(=O)O` [AMPHOTERICIN B], the MIC in the test with Aspergillus niger and in the test with Trichoderma was 32 µg/mL (≈ 34.6 µM) each time.
As for `CCn1cc(C(=O)O)c(=O)c2cc(F)c(N3CCNCC3)cc21` [NORFLOXACIN], the minimal inhibitory concentration (MIC) was found to be 16 µg/mL (≈ 50.1 µM) against Bacillus subtilis, 32 µg/mL (≈ 100 µM) in the test with Escherichia coli and 16 µg/mL (≈ 50.1 µM) against Klebsiella pneumoniae.

Usually MIC stands for the smallest concentration in the dilution series that meets the test's criterion for growth inhibition.
